# According to paper PMC10177510, “A Multicenter, Open-Label, Phase I/II Study of FN-1501 in Patients with Advanced Solid Tumors” (Cancers, 2023):
# System: advanced solid tumors
# Experiment: Anti-tumor activity in patients (RECIST best response, PFS, OS)
# Type: in vivo, human
# Method: Among 64 pts enrolled in the trial, 16 failed screening and 48 (75%) were treated with FN-1501 at one of the dose levels tested. Eligible pts were ≥18 years of age with (a) relapsed or refractory AML that had exhausted or was ineligible for therapeutic options, or with ≥5% blasts in the bone marrow according to World Health Organization (WHO) 2016 criteria; or (b) solid tumors evaluable per RECIST v1.1 that had exhausted (or were ineligible for) therapeutic options likely to convey clinical benefit. Other inclusion criteria included Eastern Cooperative Oncology Group (ECOG) performance status (PS) of <2 and life expectancy ≥3 months. Pts with a clinically controlled central nervous system (CNS) tumor or metastasis and adequate organ function were eligible to participate. Ongoing use of strong CYP3A inhibitors or inducers was exclusionary unless participants were willing and able to change to use of an equivalent medication without this profile. Other exclusion criteria included current or recent major surgical procedures, anticancer therapy (chemotherapy, immunotherapy), biologic, live virus vaccine, or investigational therapy within 21 days prior to initiation of the study treatment. For patients in the AML cohort, acute promyelocytic leukemia (APML), chronic myelogenous leukemia in blast crisis (BCR-ABL), or active CNS leukemia were exclusionary.
# Descriptive statistics were used for all safety, PK, and efficacy parameters. Data were summarized using descriptive statistics (number of pts, mean, median, standard deviation, minimum, and maximum) for continuous variables and using frequencies and percentages for discrete variables. Time-to-event variables were summarized using Kaplan–Meier methods and figures for the estimated median time.
smiles,measurement,setting,value
CN1CCN(Cc2ccc(NC(=O)c3[nH]ncc3Nc3ncnc4[nH]ccc34)cc2)CC1 [FN-1501],"Complete Response, best RECIST response, n (%)","2.5 mg/day, N = 4, ITT",0
same,DCR,"2.5 mg/day, N = 4, ITT",0.0%
same,"Landmark Progression Free Survival Rate at 3 months (Table S6, Overall Survival)","2.5 mg/day, N = 4, ITT",37.5%
same,"Landmark Progression Free Survival Rate at 6 months (Table S6, Overall Survival)","2.5 mg/day, N = 4, ITT",37.5%
same,"Landmark Progression Free Survival Rate at 9 months (Table S6, Overall Survival)","2.5 mg/day, N = 4, ITT",37.5%
same,"Landmark Progression Free Survival Rate at 12 months (Table S6, Overall Survival)","2.5 mg/day, N = 4, ITT",37.5%
same,Median overall survival,"2.5 mg/day, N = 4, ITT",2.0 months
same,Median progression-free survival,"2.5 mg/day, N = 4, ITT",1.8 months
same,ORR,"2.5 mg/day, N = 4, ITT",0.0%
same,"Partial Response, best RECIST response, n (%)","2.5 mg/day, N = 4, ITT",0
same,Progression Free Survival Rate at 3 months,"2.5 mg/day, N = 4, ITT",0.0%
same,Progression Free Survival Rate at 6 months,"2.5 mg/day, N = 4, ITT",0.0%
same,Progression Free Survival Rate at 9 months,"2.5 mg/day, N = 4, ITT",0.0%
same,Progression Free Survival Rate at 12 months,"2.5 mg/day, N = 4, ITT",0.0%
same,"Progressive Disease, best RECIST response, n (%)","2.5 mg/day, N = 4, ITT",3
same,"Stable Disease, best RECIST response, n (%)","2.5 mg/day, N = 4, ITT",0
same,"Complete Response, best RECIST response, n (%)","5 mg/day, N = 3, ITT",0
same,DCR,"5 mg/day, N = 3, ITT",0.0%
same,"Landmark Progression Free Survival Rate at 3 months (Table S6, Overall Survival)","5 mg/day, N = 3, ITT",50.0%
same,"Landmark Progression Free Survival Rate at 6 months (Table S6, Overall Survival)","5 mg/day, N = 3, ITT",0.0%
same,"Landmark Progression Free Survival Rate at 9 months (Table S6, Overall Survival)","5 mg/day, N = 3, ITT",0.0%
same,"Landmark Progression Free Survival Rate at 12 months (Table S6, Overall Survival)","5 mg/day, N = 3, ITT",0.0%
same,Median overall survival,"5 mg/day, N = 3, ITT",2.6 months
same,Median progression-free survival,"5 mg/day, N = 3, ITT",1.7 months
same,ORR,"5 mg/day, N = 3, ITT",0.0%
same,"Partial Response, best RECIST response, n (%)","5 mg/day, N = 3, ITT",0
same,Progression Free Survival Rate at 3 months,"5 mg/day, N = 3, ITT",0.0%
same,Progression Free Survival Rate at 6 months,"5 mg/day, N = 3, ITT",0.0%
same,Progression Free Survival Rate at 9 months,"5 mg/day, N = 3, ITT",0.0%
same,Progression Free Survival Rate at 12 months,"5 mg/day, N = 3, ITT",0.0%
same,"Progressive Disease, best RECIST response, n (%)","5 mg/day, N = 3, ITT",2
same,"Stable Disease, best RECIST response, n (%)","5 mg/day, N = 3, ITT",0
same,"Complete Response, best RECIST response, n (%)","10 mg/day, N = 5, ITT",0
same,DCR,"10 mg/day, N = 5, ITT",20.0%
same,"Landmark Progression Free Survival Rate at 3 months (Table S6, Overall Survival)","10 mg/day, N = 5, ITT",60.0%
same,"Landmark Progression Free Survival Rate at 6 months (Table S6, Overall Survival)","10 mg/day, N = 5, ITT",60.0%
same,"Landmark Progression Free Survival Rate at 9 months (Table S6, Overall Survival)","10 mg/day, N = 5, ITT",60.0%
same,"Landmark Progression Free Survival Rate at 12 months (Table S6, Overall Survival)","10 mg/day, N = 5, ITT",60.0%
same,Median progression-free survival,"10 mg/day, N = 5, ITT",1.4 months
same,ORR,"10 mg/day, N = 5, ITT",0.0%
same,"Partial Response, best RECIST response, n (%)","10 mg/day, N = 5, ITT",0
same,Progression Free Survival Rate at 3 months,"10 mg/day, N = 5, ITT",20.0%
same,Progression Free Survival Rate at 6 months,"10 mg/day, N = 5, ITT",0.0%
same,Progression Free Survival Rate at 9 months,"10 mg/day, N = 5, ITT",0.0%
same,Progression Free Survival Rate at 12 months,"10 mg/day, N = 5, ITT",0.0%
same,"Progressive Disease, best RECIST response, n (%)","10 mg/day, N = 5, ITT",2
same,"Stable Disease, best RECIST response, n (%)","10 mg/day, N = 5, ITT",1 (20)
same,"Complete Response, best RECIST response, n (%)","15 mg/day, N = 3, ITT",0
same,DCR,"15 mg/day, N = 3, ITT",100.0%
same,Median progression-free survival,"15 mg/day, N = 3, ITT",4.1 months
same,ORR,"15 mg/day, N = 3, ITT",0.0%
same,"Partial Response, best RECIST response, n (%)","15 mg/day, N = 3, ITT",0
same,Progression Free Survival Rate at 6 months,"15 mg/day, N = 3, ITT",33.3%
same,Progression Free Survival Rate at 9 months,"15 mg/day, N = 3, ITT",0.0%
same,Progression Free Survival Rate at 12 months,"15 mg/day, N = 3, ITT",0.0%
same,"Progressive Disease, best RECIST response, n (%)","15 mg/day, N = 3, ITT",0
same,"Stable Disease, best RECIST response, n (%)","15 mg/day, N = 3, ITT",3 (100)
same,"Complete Response, best RECIST response, n (%)","22.5 mg/day, N = 4, ITT",0
same,DCR,"22.5 mg/day, N = 4, ITT",50.0%
same,"Landmark Progression Free Survival Rate at 3 months (Table S6, Overall Survival)","22.5 mg/day, N = 4, ITT",50.0%
same,"Landmark Progression Free Survival Rate at 6 months (Table S6, Overall Survival)","22.5 mg/day, N = 4, ITT",50.0%
same,"Landmark Progression Free Survival Rate at 9 months (Table S6, Overall Survival)","22.5 mg/day, N = 4, ITT",25.0%
same,"Landmark Progression Free Survival Rate at 12 months (Table S6, Overall Survival)","22.5 mg/day, N = 4, ITT",25.0%
same,Median overall survival,"22.5 mg/day, N = 4, ITT",5.4 months
same,Median progression-free survival,"22.5 mg/day, N = 4, ITT",5.0 months
same,ORR,"22.5 mg/day, N = 4, ITT",0.0%
same,"Partial Response, best RECIST response, n (%)","22.5 mg/day, N = 4, ITT",0
same,Progression Free Survival Rate at 3 months,"22.5 mg/day, N = 4, ITT",50.0%
same,Progression Free Survival Rate at 6 months,"22.5 mg/day, N = 4, ITT",50.0%
same,Progression Free Survival Rate at 9 months,"22.5 mg/day, N = 4, ITT",25.0%
same,Progression Free Survival Rate at 12 months,"22.5 mg/day, N = 4, ITT",25.0%
same,"Progressive Disease, best RECIST response, n (%)","22.5 mg/day, N = 4, ITT",2 (50)
same,"Stable Disease, best RECIST response, n (%)","22.5 mg/day, N = 4, ITT",2 (50)
same,"Complete Response, best RECIST response, n (%)","30 mg/day, N = 3, ITT",0
same,DCR,"30 mg/day, N = 3, ITT",100.0%
same,Median progression-free survival,"30 mg/day, N = 3, ITT",3.4 months
same,ORR,"30 mg/day, N = 3, ITT",0.0%
same,"Partial Response, best RECIST response, n (%)","30 mg/day, N = 3, ITT",0
same,Progression Free Survival Rate at 3 months,"30 mg/day, N = 3, ITT",50.0%
same,Progression Free Survival Rate at 6 months,"30 mg/day, N = 3, ITT",0.0%
same,Progression Free Survival Rate at 9 months,"30 mg/day, N = 3, ITT",0.0%
same,Progression Free Survival Rate at 12 months,"30 mg/day, N = 3, ITT",0.0%
same,"Progressive Disease, best RECIST response, n (%)","30 mg/day, N = 3, ITT",0
same,"Stable Disease, best RECIST response, n (%)","30 mg/day, N = 3, ITT",3 (100)
same,Patients with best response of partial response (PR) by RECIST,"40 mg/day cohort, efficacy evaluable population",25%
same,"Complete Response, best RECIST response, n (%)","40 mg/day, N = 4, ITT",0
same,DCR,"40 mg/day, N = 4, ITT",50.0%
same,"Landmark Progression Free Survival Rate at 3 months (Table S6, Overall Survival)","40 mg/day, N = 4, ITT",75.0%
same,"Landmark Progression Free Survival Rate at 6 months (Table S6, Overall Survival)","40 mg/day, N = 4, ITT",75.0%
same,"Landmark Progression Free Survival Rate at 9 months (Table S6, Overall Survival)","40 mg/day, N = 4, ITT",75.0%
same,"Landmark Progression Free Survival Rate at 12 months (Table S6, Overall Survival)","40 mg/day, N = 4, ITT",75.0%
same,Median progression-free survival,"40 mg/day, N = 4, ITT",2.6 months
same,ORR,"40 mg/day, N = 4, ITT",25.0%
same,"Partial Response, best RECIST response, n (%)","40 mg/day, N = 4, ITT",1
same,Progression Free Survival Rate at 3 months,"40 mg/day, N = 4, ITT",33.3%
same,Progression Free Survival Rate at 6 months,"40 mg/day, N = 4, ITT",0.0%
same,Progression Free Survival Rate at 9 months,"40 mg/day, N = 4, ITT",0.0%
same,Progression Free Survival Rate at 12 months,"40 mg/day, N = 4, ITT",0.0%
